{"source": "paper PMC8891108", "about": "“Development and characterization of anti-fibrotic natural compound similars with improved effectivity” (Basic Research in Cardiology, 2022)", "assay_type_in_all_cases": "cell-based", "key": {"[1]": {"system": "human cardiac fibroblasts (HCF)", "assay": "BrdU incorporation, HCF proliferation (first screen)", "conditions": "Homo sapiens, Cardiac fibroblast; HCF, 24 h treatment; read-out: Effective conc. (BrdU), EC50 by BrdU assay", "experimental": "96-well plates (TPP) were coated with 0.1% gelatine and seeded with 7500 HCFs/well. After 72 h, medium was exchanged with serial dilutions of compounds in FGM-3 + 1.6% DMSO + 1% 5-bromo-2′-deoxyuridine (BrdU, Roche, #11647229001), prepared in additional plates. After 24 h, cells were washed twice with DPBS (Gibco, #14190144) before incubation with anti-BrdU:POD (Roche, #11647229001) for 60 min (RT). Readout was performed by measurement of absorbance at 370 nm + 490 nm in a Synergy HT (BioTek) microplate reader. […] As validation, HCF were seeded as before, but treated with serial dilutions of compounds after 24 h. […] After 60 min of incubation (37 °C, in the dark), absorbance at 450 nm + 630 nm was measured maintaining 37 °C and analysed as described before.\nTo assess screening quality, quality acceptance criteria Z′ (Z prime), SW (signal window), S:B (signal-to-background), S:N (signal-to-noise) were determined following. Average Z′ ≥ 0.5 and SW ≥ 2 were required to accept the screening overall, whereas single plates were rejected from analysis if Z′ < 0.3 or SW < 1."}, "[2]": {"system": "human living myocardial slices", "assay": "Ex vivo human living myocardial slices, qPCR gene expression", "conditions": "48 h", "text": "Myocardial slices were generated from human left ventricular heart specimens taken from failing hearts at the time of transplantation. Tissue was obtained from the Clinic for Cardiac, Thoracic, Transplant and Vascular Surgery at the Hannover Medical School (MHH), Hannover, Germany. Patients provided informed consent to the scientific use of the explanted tissue.\nThe preparation and culture of myocardial slices has been described before. Briefly, human heart specimens were sliced into 300 µm thick slices using a vibrating microtome (Campden Instruments, #7000smz-2) while in ice-cold 30 mM 2,3-butanedione monoxime + 1 mM D-glucose + 10 mM HEPES + 6 mM KCl + 140 mM NaCl + 1 mM MgCl2 + 1.8 mM CaCl2 (cardioplegic Tyrode’s solution), before being trimmed into approx. 7 × 7 mm pieces of aligned muscle fibres.\nAfter 48 h in culture, myocardial slices were frozen in liquid nitrogen and stored at −80 °C for further gene expression analysis.\nA mix of forward and reverse primer pairs (10 µM, Eurofins) or 10 × Quantitect Primer Assay (Qiagen, #249900) was used for mRNA. To measure miRNA, RNA was reverse-transcribed using the miRNA TaqMan MicroRNA Reverse Transcription Kit (Applied Biosystems, #4366597) with specific miRNA RT primers (ThermoFisher, #4427975). cDNA was diluted 1:3 with dH2O before qPCR with Absolute Blue qPCR Mix (Abgene, #AB-4136/B) and the specific Taqman probes (ThermoFisher, #4427975). Runs were performed in ViiA7 (Applied Biosystems) or QuantStudio 7 Flex (Applied Biosystems). Real-time qPCR data were analysed as described elsewhere."}, "[3]": {"system": "human cardiac fibroblasts (HCF)", "assay": "TaqMan Array Human MicroRNA Cards, miRNA deregulation in HCF", "experimental": "PCR amplification of array cards was performed as instructed. After quality control of all real-time qPCRs, cT values were exported and all runs were merged into a single excel file. Recommended baseline correction using relative thresholds to correct for varying reconstitution rates of different Taqman probes was not performed. Low-expressed miRNAs with cT > 32 in more than 1 replicate per treatment were excluded from analysis, before samples were normalized to column mean. Multiple unpaired t tests were performed using GraphPad Prism, deregulations were accepted as discoveries if FDR ≤ 1% (using BKY adjustment). As miRNA identifiers were based on miRbase v14, we converted them to the latest v22 for further analysis using miRBaseConverter. 747 sequences could be converted correctly, while the remaining miRNAs were removed from miRbase due to incorrect annotation (e.g. the sequences of hsa-miR-886-3p and hsa-miR-886-5p are part of VTRNA2-1 [44]) or no evidence of human expression."}, "[4]": {"system": "human cardiac fibroblasts (HCF)", "assay": "nCounter Fibrosis Panel mRNA profiling of HCF", "conditions": "24 h treatment", "experimental": "Briefly, 100 ng/5µL isolated total RNA of HCF after 24 h treatment (RIN > 7.5 and […] > 88%) was mixed with the hybridization Master Mix and incubated at 65 °C for 20 h before loading on a nCounter® FLEX (Department of Pathology, Hannover Medical School, Germany). All run files (.RCC) were compiled into a single experiment using the nSolver analysis software. […] Reference genes for normalization were determined by nSolver using all samples (ACAD9, ARMH3, CNOT10, GUSB, MTMR14, NOL7, NUBP1, PGK1, PPIA, RPLP0, see supplemental Fig. 4e, f). We then used the Advanced analysis plugin (v2.0.115) including LOT as confounder variable and BY adjusted p value < 0.05 for identification of central deregulated pathways. Additionally, normalized counts were further analysed with GraphPad Prism using multiple unpaired t tests with FDR ≤ 5% after BKY adjustment and log2 |FC| ≥ 1."}, "[5]": {"conditions": "mean of DMSO minus mean of treatment"}}, "data": [{"smiles": "O[C@H]1[C@H]2c3cc4c(cc3CN3CCC(=C[C@@H]1O)[C@H]23)OCO4", "note": "[Lycorine, lycorine]", "values": [{"measurement": "EC50", "setting": "[1]", "result": 2800, "unit": "nM"}, {"measurement": "FAP expression (qPCR)", "setting": "[2]", "result": "not"}, {"measurement": "MMP2 expression (qPCR)", "setting": "[2]", "result": "not"}, {"measurement": "Mean of treatment, hsa-miR-30e-3p-000422", "setting": "[3]; cT normalized to column mean", "result": -5.454}, {"measurement": "Mean of treatment, hsa-miR-16-000391", "setting": "[3]; cT normalized to column mean", "result": -6.115}, {"measurement": "Mean of treatment, hsa-miR-28-3p-002446", "setting": "[3]; cT normalized to column mean", "result": -2.622}, {"measurement": "Mean of treatment, hsa-miR-29a-002112", "setting": "[3]; cT normalized to column mean", "result": -7.899}, {"measurement": "Mean of treatment, hsa-miR-30a-3p-000416", "setting": "[3]; cT normalized to column mean", "result": -5.962}, {"measurement": "Mean of treatment, hsa-miR-31#-002113", "setting": "[3]; cT normalized to column mean", "result": -6.203}, {"measurement": "Mean of treatment, hsa-miR-31-002279", "setting": "[3]; cT normalized to column mean", "result": -7.455}, {"measurement": "Mean of treatment, hsa-miR-34a#-002316", "setting": "[3]; cT normalized to column mean", "result": -2.58}, {"measurement": "Mean of treatment, hsa-miR-125a-5p-002198", "setting": "[3]; cT normalized to column mean", "result": -3.201}, {"measurement": "Mean of treatment, hsa-miR-132-000457", "setting": "[3]; cT normalized to column mean", "result": -3.872}, {"measurement": "Mean of treatment, hsa-miR-140-3p-002234", "setting": "[3]; cT normalized to column mean", "result": -1.119}, {"measurement": "Mean of treatment, hsa-miR-151-3p-002254", "setting": "[3]; cT normalized to column mean", "result": -5.192}, {"measurement": "Mean of treatment, hsa-miR-155-002623", "setting": "[3]; cT normalized to column mean", "result": -3.701}, {"measurement": "Mean of treatment, hsa-miR-186-002285", "setting": "[3]; cT normalized to column mean", "result": -4.072}, {"measurement": "Mean of treatment, hsa-miR-191-002299", "setting": "[3]; cT normalized to column mean", "result": -6.639}, {"measurement": "Mean of treatment, hsa-miR-193b-002367", "setting": "[3]; cT normalized to column mean", "result": -4.73}, {"measurement": "Mean of treatment, hsa-miR-222#-002097", "setting": "[3]; cT normalized to column mean", "result": -3.599}, {"measurement": "Mean of treatment, hsa-miR-222-002276", "setting": "[3]; cT normalized to column mean", "result": -9.167}, {"measurement": "Mean of treatment, hsa-miR-331-000545", "setting": "[3]; cT normalized to column mean", "result": -4.63}, {"measurement": "Mean of treatment, hsa-miR-339-3p-002184", "setting": "[3]; cT normalized to column mean", "result": -0.6811}, {"measurement": "Mean of treatment, hsa-miR-342-3p-002260", "setting": "[3]; cT normalized to column mean", "result": -3.089}, {"measurement": "Mean of treatment, hsa-miR-376a-000565", "setting": "[3]; cT normalized to column mean", "result": -1.759}, {"measurement": "Mean of treatment, hsa-miR-376c-002122", "setting": "[3]; cT normalized to column mean", "result": -3.539}, {"measurement": "Mean of treatment, hsa-miR-409-3p-002332", "setting": "[3]; cT normalized to column mean", "result": -4.891}, {"measurement": "Mean of treatment, hsa-miR-625#-002432", "setting": "[3]; cT normalized to column mean", "result": -4.373}, {"measurement": "Mean of treatment, hsa-miR-1274B-002884", "setting": "[3]; cT normalized to column mean", "result": -9.621}, {"measurement": "Difference / ΔCT, hsa-miR-30e-3p-000422", "setting": "[3]; [5]", "result": 0.9633}, {"measurement": "Difference / ΔCT, hsa-miR-16-000391", "setting": "[3]; [5]", "result": 0.8517}, {"measurement": "Difference / ΔCT, hsa-miR-28-3p-002446", "setting": "[3]; [5]", "result": 0.8307}, {"measurement": "Difference / ΔCT, hsa-miR-29a-002112", "setting": "[3]; [5]", "result": 0.8647}, {"measurement": "Difference / ΔCT, hsa-miR-30a-3p-000416", "setting": "[3]; [5]", "result": 0.8856}, {"measurement": "Difference / ΔCT, hsa-miR-31#-002113", "setting": "[3]; [5]", "result": 0.5519}, {"measurement": "Difference / ΔCT, hsa-miR-31-002279", "setting": "[3]; [5]", "result": 0.598}, {"measurement": "Difference / ΔCT, hsa-miR-34a#-002316", "setting": "[3]; [5]", "result": 0.8439}, {"measurement": "Difference / ΔCT, hsa-miR-125a-5p-002198", "setting": "[3]; [5]", "result": 0.6283}, {"measurement": "Difference / ΔCT, hsa-miR-132-000457", "setting": "[3]; [5]", "result": 1.328}, {"measurement": "Difference / ΔCT, hsa-miR-140-3p-002234", "setting": "[3]; [5]", "result": 0.7567}, {"measurement": "Difference / ΔCT, hsa-miR-151-3p-002254", "setting": "[3]; [5]", "result": 0.604}, {"measurement": "Difference / ΔCT, hsa-miR-155-002623", "setting": "[3]; [5]", "result": 1.386}, {"measurement": "Difference / ΔCT, hsa-miR-186-002285", "setting": "[3]; [5]", "result": 1.039}, {"measurement": "Difference / ΔCT, hsa-miR-191-002299", "setting": "[3]; [5]", "result": 0.8243}, {"measurement": "Difference / ΔCT, hsa-miR-193b-002367", "setting": "[3]; [5]", "result": 0.5576}, {"measurement": "Difference / ΔCT, hsa-miR-222#-002097", "setting": "[3]; [5]", "result": 1.599}, {"measurement": "Difference / ΔCT, hsa-miR-222-002276", "setting": "[3]; [5]", "result": 0.8654}, {"measurement": "Difference / ΔCT, hsa-miR-331-000545", "setting": "[3]; [5]", "result": 0.6606}, {"measurement": "Difference / ΔCT, hsa-miR-339-3p-002184", "setting": "[3]; [5]", "result": 0.7187}, {"measurement": "Difference / ΔCT, hsa-miR-342-3p-002260", "setting": "[3]; [5]", "result": 0.7149}, {"measurement": "Difference / ΔCT, hsa-miR-376a-000565", "setting": "[3]; [5]", "result": 1.019}, {"measurement": "Difference / ΔCT, hsa-miR-376c-002122", "setting": "[3]; [5]", "result": 0.5396}, {"measurement": "Difference / ΔCT, hsa-miR-409-3p-002332", "setting": "[3]; [5]", "result": 0.9354}, {"measurement": "Difference / ΔCT, hsa-miR-625#-002432", "setting": "[3]; [5]", "result": 0.6889}, {"measurement": "Difference / ΔCT, hsa-miR-1274B-002884", "setting": "[3]; [5]", "result": -0.4297}, {"measurement": "deregulation of fibrosis panel genes / pathways", "setting": "[4]", "result": "less deregulation (fold-change) compared to the other treatments"}]}]}
